In patent US7858635B2 (priority 2005, dated 2010):

What was measured:
[1] = target: T1, M1 muscarinic receptor (Homo sapiens, UniProt P11229); experiment: Functional mobilization of intracellular calcium (FLIPR, Fluo-3), M1-CHO cells; format: cell-based; settings: compound nos. 1-454; for Emax: 100% efficacy is the maximum response obtained with the Carbachol control, read-out: M1 Efficacy; for M1 Activity: M1-CHO cells, calcium mobilization
T1 construct: expressed in transfected cells; host or cells: CHO cells (M1-CHO, under zeocin and G418 selection)
T1 sequence (P11229 1-460): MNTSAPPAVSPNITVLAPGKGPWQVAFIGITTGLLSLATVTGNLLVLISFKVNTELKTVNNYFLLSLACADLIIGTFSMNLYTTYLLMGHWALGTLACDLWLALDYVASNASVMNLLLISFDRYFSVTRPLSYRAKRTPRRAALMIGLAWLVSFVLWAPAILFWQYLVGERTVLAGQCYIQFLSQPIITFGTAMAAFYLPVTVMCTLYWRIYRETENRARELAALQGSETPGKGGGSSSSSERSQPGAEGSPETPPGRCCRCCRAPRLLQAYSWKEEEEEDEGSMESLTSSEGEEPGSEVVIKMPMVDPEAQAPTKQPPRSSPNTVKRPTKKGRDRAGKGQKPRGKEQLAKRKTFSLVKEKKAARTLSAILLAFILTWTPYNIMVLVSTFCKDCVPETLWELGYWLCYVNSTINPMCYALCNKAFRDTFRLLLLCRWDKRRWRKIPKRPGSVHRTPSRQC
Method in brief: (§1)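 Fluo-3 read-out, ex 488/em 540 nm, 60 sec on FLIPR 3. For agonist mode, compound added directly; for inhibition, 15 min compound pre-incubation before carbachol at EC80 (added as a 3× solution), or co-application. Buffer pH 7.4 with 1 mM probenecid; DMSO 0.5%.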

[2] = target: T2, M4 muscarinic receptor (Homo sapiens, UniProt P08173); experiment: Functional mobilization of intracellular calcium (FLIPR, Fluo-3), M4-CHO cells; format: cell-based; settings: compound nos. 1-454; for Emax: 100% efficacy is the maximum response obtained with the Carbachol control, read-out: M4 Efficacy; for M4 Activity: M4-CHO cells, calcium mobilization
T2 construct: expressed in transfected cells; host or cells: CHO cells (M4-CHO, under puromycin, zeocin and blasticidin selection)
T2 sequence (P08173 1-479): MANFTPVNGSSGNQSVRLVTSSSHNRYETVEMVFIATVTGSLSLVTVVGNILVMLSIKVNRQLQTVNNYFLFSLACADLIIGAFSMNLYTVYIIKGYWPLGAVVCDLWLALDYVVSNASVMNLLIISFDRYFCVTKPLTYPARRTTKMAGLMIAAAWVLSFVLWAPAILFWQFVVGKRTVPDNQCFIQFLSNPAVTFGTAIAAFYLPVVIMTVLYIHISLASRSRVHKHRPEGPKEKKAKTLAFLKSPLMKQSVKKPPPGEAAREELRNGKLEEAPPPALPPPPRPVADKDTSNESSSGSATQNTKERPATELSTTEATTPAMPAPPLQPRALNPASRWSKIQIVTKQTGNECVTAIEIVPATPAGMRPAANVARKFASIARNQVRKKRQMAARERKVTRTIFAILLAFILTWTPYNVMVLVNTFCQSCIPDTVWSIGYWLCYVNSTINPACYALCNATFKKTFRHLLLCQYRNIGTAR
Method in brief: as §1

SMILES: CCOC(=O)N1CCC(N2CCC3(CC2)CN(C(=O)c2ccc(C)cc2)c2ccc(F)cc23)CC1 [compound 330]
- Emax [1]: < 65%
- M1 Activity [1]: + (activity was measured to be greater than or equal to 3.0 μM)
- Emax [2]: < 55%
- M4 Activity [2]: + (activity was measured to be greater than or equal to 4.0 μM)

SMILES: CCOC(=O)N1CCC(N2CCC3(CC2)CN(C(=O)c2ccccn2)c2ccc(F)cc23)CC1 [compound 331]
- Emax [1]: < 65%
- M1 Activity [1]: ++ (activity was measured to be between 0.7 μM and 3.0 μM)
- Emax [2]: < 55%
- M4 Activity [2]: + (activity was measured to be greater than or equal to 4.0 μM)

SMILES: Clc1ccc2c(c1)C1(CCN(C3CCCCCC3)CC1)CN2 [compound 333]
- Emax [1]: < 65%
- M1 Activity [1]: + (activity was measured to be greater than or equal to 3.0 μM)
- Emax [2]: < 55%
- M4 Activity [2]: + (activity was measured to be greater than or equal to 4.0 μM)

SMILES: CCCC1CCC(N2CCC3(CC2)CNc2ccccc23)CC1 (centres unmarked) [compound 334]
- Emax [1]: < 65%
- M1 Activity [1]: + (activity was measured to be greater than or equal to 3.0 μM)
- Emax [2]: < 55%
- M4 Activity [2]: + (activity was measured to be greater than or equal to 4.0 μM)

SMILES: CCOC(=O)N1CCC(N2CCC3(CC2)CN(C(=O)c2cc(C)oc2C)c2ccc(F)cc23)CC1 [compound 335]
- Emax [1]: < 65%
- M1 Activity [1]: + (activity was measured to be greater than or equal to 3.0 μM)
- Emax [2]: < 55%
- M4 Activity [2]: + (activity was measured to be greater than or equal to 4.0 μM)

SMILES: O=C(O[C@@H]1CCOC1)N1C2CCC1CC(N1CCC3(CC1)C(=O)Nc1ccccc13)C2 (some centres unmarked) [compound 336]
- Emax [1]: < 65%
- M1 Activity [1]: + (activity was measured to be greater than or equal to 3.0 μM)
- Emax [2]: < 55%
- M4 Activity [2]: + (activity was measured to be greater than or equal to 4.0 μM)

SMILES: CC(=O)N[C@H]1CC2(CCN(C3CC4CCC(C4)C3)CC2)c2ccccc21 (some centres unmarked) [compound 337]
- Emax [1]: < 65%
- M1 Activity [1]: + (activity was measured to be greater than or equal to 3.0 μM)
- Emax [2]: < 55%
- M4 Activity [2]: + (activity was measured to be greater than or equal to 4.0 μM)

SMILES: O=C(O[C@@H]1CCOC1)N1C2CCC1CC(N1CCC3(CC1)COc1ccc(F)cc13)C2 (some centres unmarked) [compound 338]
- Emax [1]: < 65%
- M1 Activity [1]: + (activity was measured to be greater than or equal to 3.0 μM)
- Emax [2]: < 55%
- M4 Activity [2]: + (activity was measured to be greater than or equal to 4.0 μM)

SMILES: CC(=O)N(C)[C@H]1CC2(CCN(C[C@H]3C[C@H]4CC[C@H]3C4)CC2)c2ccccc21 [compound 339]
- Emax [1]: < 65%
- M1 Activity [1]: + (activity was measured to be greater than or equal to 3.0 μM)
- Emax [2]: < 55%
- M4 Activity [2]: + (activity was measured to be greater than or equal to 4.0 μM)

SMILES: CCOC(=O)N1CCC(N2CCC3(CC2)CN(C(C)=O)c2ccc(OC)cc23)CC1 [compound 340]
- Emax [1]: < 65%
- M1 Activity [1]: ++ (activity was measured to be between 0.7 μM and 3.0 μM)
- Emax [2]: < 55%
- M4 Activity [2]: + (activity was measured to be greater than or equal to 4.0 μM)

SMILES: CCCC1CCC(N2CCC3(CC2)CNc2ccc(Cl)cc23)CC1 (centres unmarked) [compound 341]
- Emax [1]: < 65%
- M1 Activity [1]: + (activity was measured to be greater than or equal to 3.0 μM)
- Emax [2]: < 55%
- M4 Activity [2]: + (activity was measured to be greater than or equal to 4.0 μM)

SMILES: c1ccc2c(c1)NCC21CCN(CC2CCCCC2)CC1 [compound 342]
- Emax [1]: 65 to 85%
- M1 Activity [1]: +++ (activity was measured to be less than or equal to 0.7 μM)
- Emax [2]: 55 to 70%
- M4 Activity [2]: ++ (activity was measured to be between 0.1 μM and 4.0 μM)

SMILES: CC(=O)N1CC2(CCN(C3CCCC3)CC2)c2cc(F)ccc21 [compound 343]
- Emax [1]: 65 to 85%
- M1 Activity [1]: +++ (activity was measured to be less than or equal to 0.7 μM)
- Emax [2]: < 55%
- M4 Activity [2]: +++ (activity was measured to be less than or equal to 0.1 μM)

SMILES: CCOC(=O)N1C2CCC1CC(N1CCC3(CC1)CN(C(=O)O[C@@H]1CCOC1)c1ccc(F)cc13)C2 (some centres unmarked) [compound 344]
- Emax [1]: 65 to 85%
- M1 Activity [1]: +++ (activity was measured to be less than or equal to 0.7 μM)
- Emax [2]: < 55%
- M4 Activity [2]: ++ (activity was measured to be between 0.1 μM and 4.0 μM)

SMILES: CC(C)OC(=O)N1C2CCC1CC(N1CCC3(CC1)CN(C(=O)C1CC1)c1ccc(F)cc13)C2 (centres unmarked) [compound 345]
- Emax [1]: < 65%
- M1 Activity [1]: +++ (activity was measured to be less than or equal to 0.7 μM)
- Emax [2]: < 55%
- M4 Activity [2]: ++ (activity was measured to be between 0.1 μM and 4.0 μM)

SMILES: CC#CCOC(=O)N1CC2(CCN(C3CCN(C(=O)OCC)CC3)CC2)c2cc(F)ccc21 [compound 346]
- Emax [1]: < 65%
- M1 Activity [1]: +++ (activity was measured to be less than or equal to 0.7 μM)
- Emax [2]: < 55%
- M4 Activity [2]: + (activity was measured to be greater than or equal to 4.0 μM)

SMILES: CCOC(=O)N(C)[C@H]1CC2(CCN(C[C@H]3C[C@H]4CC[C@H]3C4)CC2)c2ccccc21 [compound 347]
- Emax [1]: 65 to 85%
- M1 Activity [1]: +++ (activity was measured to be less than or equal to 0.7 μM)
- Emax [2]: > 70%
- M4 Activity [2]: ++ (activity was measured to be between 0.1 μM and 4.0 μM)

SMILES: Clc1ccc2c(c1)C1(CCN(C3CCC4CCC3C4)CC1)CN2 (centres unmarked) [compound 348]
- Emax [1]: > 85%
- M1 Activity [1]: +++ (activity was measured to be less than or equal to 0.7 μM)
- Emax [2]: > 70%
- M4 Activity [2]: ++ (activity was measured to be between 0.1 μM and 4.0 μM)

SMILES: CCCS(=O)(=O)N1CC2(CCN(C3CC4CCC(C3)N4C(=O)OCC)CC2)c2cc(F)ccc21 (centres unmarked) [compound 349]
- Emax [1]: > 85%
- M1 Activity [1]: ++ (activity was measured to be between 0.7 μM and 3.0 μM)
- Emax [2]: > 70%
- M4 Activity [2]: ++ (activity was measured to be between 0.1 μM and 4.0 μM)

SMILES: Cc1ccc2c(c1)C1(CCN(C3CC4CCC3C4)CC1)CN2 (centres unmarked) [compound 350]
- Emax [1]: > 85%
- M1 Activity [1]: +++ (activity was measured to be less than or equal to 0.7 μM)
- Emax [2]: > 70%
- M4 Activity [2]: +++ (activity was measured to be less than or equal to 0.1 μM)

SMILES: CCOC(=O)N1C2CCC1CC(N1CCC3(CC1)CNc1ccc(Cl)cc13)C2 (centres unmarked) [compound 351]
- Emax [1]: 65 to 85%
- M1 Activity [1]: +++ (activity was measured to be less than or equal to 0.7 μM)
- Emax [2]: > 70%
- M4 Activity [2]: ++ (activity was measured to be between 0.1 μM and 4.0 μM)

SMILES: CCOC(=O)N1CCC(N2CCC3(CC2)CNc2ccccc23)CC1 [compound 352]
- Emax [1]: > 85%
- M1 Activity [1]: +++ (activity was measured to be less than or equal to 0.7 μM)
- Emax [2]: > 70%
- M4 Activity [2]: + (activity was measured to be greater than or equal to 4.0 μM)

SMILES: CC#CCOC(=O)N1CCC(N2CCC3(CC2)CN(C(=O)N(C)C)c2ccc(F)cc23)CC1 [compound 353]
- Emax [1]: > 85%
- M1 Activity [1]: +++ (activity was measured to be less than or equal to 0.7 μM)
- Emax [2]: 55 to 70%
- M4 Activity [2]: + (activity was measured to be greater than or equal to 4.0 μM)

SMILES: Cc1ccc2c(c1)C1(CCN(C3CC4CCC3C4)CC1)CN2S(=O)(=O)c1ccccc1 (centres unmarked) [compound 354]
- Emax [1]: 65 to 85%
- M1 Activity [1]: + (activity was measured to be greater than or equal to 3.0 μM)
- Emax [2]: 55 to 70%
- M4 Activity [2]: + (activity was measured to be greater than or equal to 4.0 μM)

SMILES: O=C(O[C@H]1CCOC1)N1C2CCC1CC(N1CCC3(CCc4ccccc43)CC1)C2 (some centres unmarked) [compound 355]
- Emax [1]: 65 to 85%
- M1 Activity [1]: ++ (activity was measured to be between 0.7 μM and 3.0 μM)
- Emax [2]: 55 to 70%
- M4 Activity [2]: ++ (activity was measured to be between 0.1 μM and 4.0 μM)

SMILES: CN([C@H]1CC2(CCN(C[C@H]3C[C@H]4CC[C@H]3C4)CC2)c2ccccc21)S(C)(=O)=O [compound 357]
- Emax [1]: < 65%
- M1 Activity [1]: ++ (activity was measured to be between 0.7 μM and 3.0 μM)
- Emax [2]: < 55%
- M4 Activity [2]: + (activity was measured to be greater than or equal to 4.0 μM)
